Columns and labels:
[1] = Systolic blood pressure of SHROB rats fed drug-supplemented chow; assay type: in vivo, rat
Protocol: Briefly, animals were housed individually at a constant temperature of 21° C. on a 12:12 hours light/dark cycle. […] The procedures were carried out in accordance with applicable laws and accepted guidelines for animal welfare.
(§1) Eight SHROB rats (4 males, 4 females) were used in each treatment group. Animals were fed with chow supplemented with either CPSSA or captopril, or with standard (non-supplemented) chow diet, which served as a control. Measurements of body weight, food consumption and blood pressure were conducted 3 times a week for the duration of the experiment.

[2] = Body weight gain of SHROB rats fed drug-supplemented chow; assay type: in vivo, rat; conditions: for effect on body weight gain: compared with non-treated control, FIG. 1
Protocol: (§2) Animals: Obese spontaneously […] rats with a naturally occurring knockout of the leptin receptor (SHROB; Koletsky et al., pp. 143-158 in: Sima AAF and Shafrir (eds) Animal Models of Diabetes: A Primer, Harwood, Singapore, 2001) were used. Adult (4-5 months old) male and female SHROB were maintained essentially as described by Velliquette and Emsberger (JPET 307: 1104-1111, 2003). Briefly, animals were housed individually at a constant temperature of 21° C. on a 12:12 hours light/dark cycle. The animals were given ad libitum access to food (Teklad 8664 rat chow) and were maintained for a period of 60 days. The procedures were carried out in accordance with applicable laws and accepted guidelines for animal welfare.
(§3) Either CPSSA or captopril were dissolved in a 20% ethanol solution, chilled on ice, and were then thoroughly mixed with powdered rat chow in equivalent molar amounts of 1.107 and 0.827 gram/kg, respectively.
as §1

[3] = cited from earlier work
[4] = Food consumption of SHROB rats fed drug-supplemented chow; assay type: in vivo, rat; conditions: throughout the experiment, FIG. 2
Protocol: as §2, §3, §1

[5] = in vivo; cited from earlier work
[6] = day 20, drug in chow ad libitum
[7] = day 53, drug in chow ad libitum

Row | SMILES | effect on blood pressure ([1]; FIG. 3) | average systolic blood pressure ([1]; day 14) | average systolic blood pressure ([1]; day 28) | average systolic blood pressure ([1]; day 56) | effect on body weight gain [2] | average body weight gain [2, 6] [%] | average body weight gain [2, 7] [%] | stability in blood or plasma ([3]; blood or plasma of mammals) | reaction with serum proteins ([3]; serum proteins) | food uptake [4] | blood pressure [5] | serum level of insulin [5] | serum level of triglycerides [5]
1 | C=CCSSC[C@H](C)C(=O)N1CCC[C@H]1C(=O)O [CPSSA, Allylmercaptocaptopril] | substantially reduced the blood pressure | 165.6 | 146.8 | 140.3 | effectively prevented body weight gain | 0.6 | −0.1 | stable in blood or plasma of mammals | reacts very sluggishly with serum proteins | no differences were observed in the food uptake | significantly decreases blood pressure | reduces | reduces
2 | C[C@H](CS)C(=O)N1CCC[C@H]1C(=O)O [captopril] |  | 165.5 | 159.3 | 159.7 | had no effect on body weight gain | 7.3 | 11.8 |  |  | no differences were observed in the food uptake |  |  | 

Reference: patent US20090209613A1, “Use of allymercaptocaptopril for treating or preventing obesity and obesity related diseases” (Yeda Researc And Development Co. Ltd. at the Weizmann …, priority 2005, published 2009)
